Source: a melting point compilation (Tetko et al.)

Compound	melting point [°C]
Nc1nc2c(s1)CC(c1ccccc1)CC2 (centres undefined)	181 to 183
CS(=O)Cc1cc(N)ccc1Cl (centres undefined)	200 to 202
CCn1cnnc1CNC(=O)OCC(F)(F)F	102 to 104
CCOC(=O)c1ncn(-c2ccc(C)cc2)c1N	246 to 248
Cc1ccc(N2CCCC2)c(C(=O)O)c1	124 to 126
CCOC(=O)c1sc2[nH]cnc(=O)c2c1C	233 to 235
CCOC(=O)c1cnn(-c2ccc(C(F)(F)F)cn2)c1C	88 to 90
CC(C)c1nc(CC(=O)O)cs1	87 to 89
O=c1[nH]cnc2c1cnn2-c1ccc(F)cc1	243 to 246
Nc1nc2c(F)c(F)c(F)cc2s1	160 to 164
NC(CCN1CCOCC1)=NO	159 to 161
CCn1ccc(=O)nc1S	242 to 244
Cc1cc(N2CCOCC2)ccc1N	89 to 91
NC1CCN(CC(=O)Nc2ccccc2)CC1	75 to 77
Nc1nc(CN2CCN(c3ncccn3)CC2)cs1	158 to 160
O=C(NCc1ccccc1)c1cccc(O)c1	140 to 142
CCN1CCN(S(=O)(=O)c2ccc(Cl)c(C(=O)O)c2)CC1	189 to 191
O=C(NC(c1nn[nH]n1)C1CC1)c1ccccc1 (centres undefined)	189 to 191
Cc1nc(-c2ccccn2)[nH]c(=O)c1CC(=O)O	209 to 211
Cc1ccccc1Cc1cnc(N)s1	102 to 104
CC(C)CN1C(=O)NC(=O)C1=O	145 to 148
CNC(=O)c1ccccc1O	83 to 85
COc1cccc(-c2n[nH]cc2C=O)c1	91 to 93
Sc1nnc(-c2cccs2)n1-c1ccccc1	269 to 271
COc1cccc(-c2nc(C=O)cs2)c1	92 to 94

Compound	melting point [°C]
O=C(CCc1ccccc1)NC1CCN(C(=O)CCl)CC1	144 to 146
Nc1ccc2c(c1)NC(=O)CO2	215 to 217
O=C1CCCc2cc(O)ccc2N1	219 to 221
CC1(c2cc3ccccc3o2)NC(=O)NC1=O (centres undefined)	203 to 205
NC1CCN(c2ccc(Cl)c(Cl)c2)C1=O (centres undefined)	104 to 106
Cn1cnnc1SCC(=O)Nc1cccc(C(=O)O)c1	231 to 233
COc1ccc(Cl)cc1-c1nnc(N)o1	201 to 203
COc1ccc(NC(=S)NN)cn1	154 to 156
CC(=O)NCc1ccc(S(N)(=O)=O)s1	121 to 123
Cn1c(=O)[nH]c(=O)c2ccc(C(=O)O)nc21	305 to 307
Nc1nc(Sc2ccccc2)ns1	154 to 156
O=C(O)c1cccn(Cc2ccccc2)c1=O	129 to 131
Nc1ncc(Cc2cccc(F)c2)s1	82 to 84
O=C(O)C=Cc1ccccc1OCC1CCCCC1	99 to 101
O=c1n(CCO)nc2ccccn12	134 to 136
CN(C)C(=O)c1cccc(C#N)c1	87 to 89
OCCn1ncc2ccccc21	48 to 50
Cc1noc2ncc(N)cc12	179 to 181
OC(CN1CCNCC1)c1ccccc1 (centres undefined)	67 to 69
NCc1ccc(C(=O)NCC(N)=O)cc1	199 to 201
N#CCCNc1cccc(Cl)c1	141 to 143
CCC(C)NC(=O)C1CC(C)Nc2ccccc21 (centres undefined)	121 to 123
CC1N=C(S)N(C2CC2)C1=O (centres undefined)	< 17
CC(C)(C)OC(=O)NC1CCCC1CN (centres undefined)	99 to 101
Cc1c(S(=O)(=O)Cl)cnn1-c1ccc(F)cc1	96 to 98

Compound	melting point [°C]
N#CCc1cc2ccccc2nc1Cl	128 to 130
N#Cc1cc(Cl)ccc1CS(=O)(=O)Cl	106 to 108
O=C(Nc1cccc(Br)c1)c1ccccc1	136 to 138
BrCCOc1ccc2ccccc2c1	94 to 96
O=C(O)c1ccc(S(=O)(=O)NCc2cccs2)cc1	232 to 234
Nc1ccc(Cl)c(-n2nnnc2C2CC2)c1	135 to 137
O=C(CCl)NCC(=O)N1CCCC1	125 to 127
O=[N+]([O-])c1ccc(F)cc1NC1CC1	69 to 71
CC(C)C1NC(=O)c2ccccc2NC1=O (centres undefined)	259 to 261
Nc1cccc(S(=O)(=O)Nc2nccs2)c1	170 to 172
CC1(C(=O)O)CCCN1C(=O)c1ccccc1 (centres undefined)	205 to 207
NC(=O)Cn1cnc(-c2ccccc2)c1N	209 to 211
O=C(CCl)N1CCNC1=O	195 to 197
O=C(O)c1ccc(Sc2ccc(Cl)cc2)cc1	203 to 205
O=C(CCl)Nc1ccc(N2CCCC2=O)cc1	258 to 260
Cc1cc(C)cc(C(=O)N2CCNCC2)c1	125 to 127
NC(=O)N1CCCC1CO (centres undefined)	94 to 96
Nc1cc(Cl)ccc1-n1ccnc1	154 to 156
CS(=O)(=O)c1ccc(CN)cc1	272 to 274
COc1cc(NC(=O)OC(C)(C)C)c(Cl)cc1C(=O)O	155 to 157
O=C(O)CSCc1nc2sc3c(c2c(=O)[nH]1)CCC3	198 to 200
O=[N+]([O-])c1cc(Br)ccc1I	84 to 86
COC(=O)C(=O)CC(=O)c1ccc2c(c1)OCO2	98 to 105
Cc1nc(-c2ccccc2Cl)sc1C(=O)O	217 to 219
